Source: patent publication US9376418B2, “Substituted pyridine spleen tyrosine kinase (SYK) inhibitors” (Merck Sharp & Dohme Corp., priority 2012, dated 2016)
pIC50: −log10 of the molar value.

Biological target: T1, recombinant human GST-SYK (Homo sapiens, UniProt P43405)
T1 construct: purchased Carna Biosciences 08-176
Assay: Homogeneous Time-Resolved Fluorescence (HTRF) assay for the recombinant human Syk enzyme
Type: biochemical
Details: HTRF assay, recombinant human GST-SYK; IC50 given as class symbols; read-out: rhSYK Activity
Summary of the method: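 HTRF read-out: Europium-anti-phosphotyrosine antibody (2 nM) plus SA-APC (70 nM) in EDTA-containing buffer quenched the reaction, and signal was read after 30 minutes. Kinase step used […], 250 nM biotinylated peptide, 25 μM ATP, 5 mM Mg, 45′ at room temperature.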

| SMILES | pIC50 |
| --- | --- |
| Cc1cc(Nc2nccc(C(F)(F)F)n2)cc(-c2ccnc(N3CCCC34CCNC4=O)c2)c1 (stereo not shown) [Example 15.36, 1-[4-(3-methyl-5-{[4-(trifluoromethyl)pyrimidin-2-yl]amino}phenyl)pyridin-2-yl]-1,7-diazaspiro[4.4]nonan-6-one] | 6.00 to 7.00 |
| Cc1cc(Nc2nccc(C(F)(F)F)n2)cc(-c2ccnc(NCc3cncn3C)c2)c1 [Example 15.38, N-[3-methyl-5-(2-{[(1-methyl-1H-imidazol-5-yl)methyl]amino}pyridin-4-yl)phenyl]-4-(trifluoromethyl)pyrimidin-2-amine] | 6.00 to 7.00 |
| Cc1cc(Nc2nccc(C(F)(F)F)n2)cc(-c2ccnc(N3CCN(C(=O)c4ccc5cc[nH]c5c4)CC3)c2)c1 [Example 15.39, N-(3-{2-[4-(1H-indol-6-ylcarbonyl)piperazin-1-yl]pyridin-4-yl}-5-methylphenyl)-4-(trifluoromethyl)pyrimidin-2-amine] | 6.00 to 7.00 |
| Cc1cc(Nc2nccc(C(F)(F)F)n2)cc(-c2ccnc(N3CCNC(=O)CC3)c2)c1 [Example 15.42, 1-[4-(3-methyl-5-{[4-(trifluoromethyl)pyrimidin-2-yl]amino}phenyl)pyridin-2-yl]-1,4-diazepan-5-one] | > 7.00 |
| Cc1cc(Nc2nccc(C(F)(F)F)n2)cc(-c2ccnc(N3CCNC(=O)C3)c2)c1 [Example 15.44, 4-[4-(3-methyl-5-{[4-(trifluoromethyl)pyrimidin-2-yl]amino}phenyl)pyridin-2-yl]piperazin-2-one] | > 7.00 |
| Cc1cc(Nc2nccc(C(F)(F)F)n2)cc(-c2ccnc(N3CCC(C(N)=O)CC3)c2)c1 [Example 15.46, 1-[4-(3-methyl-5-{[4-(trifluoromethyl)pyrimidin-2-yl]amino}phenyl)pyridin-2-yl]piperidine-4-carboxamide] | > 7.00 |
| Cc1cc(Nc2nccc(C(F)(F)F)n2)cc(-c2ccnc(N3CCN(C)C(=O)C3)c2)c1 [Example 15.47, 1-methyl-4-[4-(3-methyl-5-{[4-(trifluoromethyl)pyrimidin-2-yl]amino}phenyl)pyridin-2-yl]piperazin-2-one] | > 7.00 |
| Cc1cc(Nc2nccc(C(F)(F)F)n2)cc(-c2ccnc(NC3(CO)CCCC3)c2)c1 [Example 15.50, (1-{[4-(3-methyl-5-{[4-(trifluoromethyl)pyrimidin-2-yl]amino}phenyl)pyridin-2-yl]amino}cyclopentyl)methanol] | > 7.00 |
| Cc1cc(Nc2nccc(C(F)(F)F)n2)cc(-c2ccnc(N3CC(O)C3)c2)c1 [Example 15.53, 1-[4-(3-methyl-5-{[4-(trifluoromethyl)pyrimidin-2-yl]amino}phenyl)pyridin-2-yl] azetidin-3-ol] | > 7.00 |
| Cc1cc(Nc2nccc(C(F)(F)F)n2)cc(-c2ccnc(N3CCCC3C(N)=O)c2)c1 (stereo not shown) [Example 15.55, 1-[4-(3-methyl-5-{[4-(trifluoromethyl)pyrimidin-2-yl]amino}phenyl)pyridin-2-yl] prolinamide] | > 7.00 |
| Cc1cc(Nc2nccc(C(F)(F)F)n2)cc(-c2ccnc(N(C)CCC3OCCO3)c2)c1 [Example 15.57, N-[3-(2-{[2-(1,3-dioxolan-2-yl)ethyl](methyl)amino}pyridin-4-yl)-5-methylphenyl]-4-(trifluoromethyl)pyrimidin-2-amine] | 6.00 to 7.00 |
| CNC(=O)C1CCN(c2cc(-c3cc(C)cc(Nc4nccc(C(F)(F)F)n4)c3)ccn2)CC1 [Example 15.58, N-methyl-1-[4-(3-methyl-5-{[4-(trifluoromethyl)pyrimidin-2-yl]amino}phenyl)pyridin-2-yl]piperidine-4-carboxamide] | 6.00 to 7.00 |
| Cc1cc(Nc2nccc(C(F)(F)F)n2)cc(-c2ccnc(N3CCN(C)CC3)c2)c1 [Example 15.61, N-{3-methyl-5-[2-(4-methylpiperazin-1-yl)pyridin-4-yl]phenyl}-4-(trifluoromethyl)pyrimidin-2-amine] | 6.00 to 7.00 |
| Cc1cc(Nc2nccc(C(F)(F)F)n2)cc(-c2ccnc(N3CCN(S(C)(=O)=O)CC3)c2)c1 [Example 15.63, N-(3-methyl-5-{2-[4-(methylsulfonyl)piperazin-1-yl]pyridin-4-yl}phenyl)-4-(trifluoromethyl)pyrimidin-2-amine] | 6.00 to 7.00 |
| CCN1CCN(c2cc(-c3cc(C)cc(Nc4nccc(C(F)(F)F)n4)c3)ccn2)CC1 [Example 15.64, N-{3-[2-(4-ethylpiperazin-1-yl)pyridin-4-yl]-5-methylphenyl}-4-(trifluoromethyl)pyrimidin-2-amine] | 6.00 to 7.00 |
| Cc1cc(Nc2nccc(C(F)(F)F)n2)cc(-c2ccnc(N[C@@H]3CCC(=O)NC3)c2)c1 [Example 15.66, (5R)-5-{[4-(3-methyl-5-{[4-(trifluoromethyl)pyrimidin-2-yl]amino}phenyl)pyridin-2-yl]amino}piperidin-2-one] | > 7.00 |
| Cc1cc(Nc2nccc(C(F)(F)F)n2)cc(-c2ccnc(N[C@H]3CCC(=O)NC3)c2)c1 [Example 15.67, (5S)-5-{[4-(3-methyl-5-{[4-(trifluoromethyl)pyrimidin-2-yl]amino}phenyl)pyridin-2-yl]amino}piperidin-2-one] | > 7.00 |
| Cc1cc(Nc2nccc(C(F)(F)F)n2)cc(-c2ccnc(N3CCCC(F)(F)C3)c2)c1 [Example 15.68, N-{3-[2-(3,3-difluoropiperidin-1-yl)pyridin-4-yl]-5-methylphenyl}-4-(trifluoromethyl)pyrimidin-2-amine] | 6.00 to 7.00 |
| COCC1CCCN1c1cc(-c2cc(C)cc(Nc3nccc(C(F)(F)F)n3)c2)ccn1 (stereo not shown) [Example 15.69, N-(3-{2-[2-(methoxymethyl)pyrrolidin-1-yl]pyridin-4-yl}-5-methylphenyl)-4-(trifluoromethyl)pyrimidin-2-amine] | 6.00 to 7.00 |

The remaining lines, values ahead:

| pIC50 | SMILES |
| --- | --- |
| > 7.00 | CCC(CO)Nc1cc(-c2cc(C)cc(Nc3nccc(C(F)(F)F)n3)c2)ccn1 (stereo not shown) [Example 15.37, 2-{[4-(3-methyl-5-{[4-(trifluoromethyl)pyrimidin-2-yl]amino}phenyl)pyridin-2-yl]amino}butan-1-ol] |
| 6.00 to 7.00 | Cc1cc(Nc2nccc(C(F)(F)F)n2)cc(-c2ccnc(NCc3cn(C)cn3)c2)c1 [Example 15.40, N-[3-methyl-5-(2-{[(1-methyl-1H-imidazol-4-yl)methyl]amino}pyridin-4-yl)phenyl]-4-(trifluoromethyl)pyrimidin-2-amine] |
| > 7.00 | Cc1cc(Nc2nccc(C(F)(F)F)n2)cc(-c2ccnc(NCCN)c2)c1 [Example 15.41, N-[4-(3-methyl-5-{[4-(trifluoromethyl)pyrimidin-2-yl]amino}phenyl)pyridin-2-yl]ethane-1,2-diamine] |
| > 7.00 | Cc1cc(Nc2nccc(C(F)(F)F)n2)cc(-c2ccnc(NC(C)(C)C(=O)O)c2)c1 [Example 15.43, 2-methyl-N-[4-(3-methyl-5-{[4-(trifluoromethyl)pyrimidin-2-yl]amino}phenyl)pyridin-2-yl]alanine] |
| > 7.00 | Cc1cc(Nc2nccc(C(F)(F)F)n2)cc(-c2ccnc(N(C)CCO)c2)c1 [Example 15.45, 2-{methyl[4-(3-methyl-5-{[4-(trifluoromethyl)pyrimidin-2-yl]amino}phenyl)pyridin-2-yl]amino}ethanol] |
| > 7.00 | Cc1cc(Nc2nccc(C(F)(F)F)n2)cc(-c2ccnc(N[C@@H](C)CO)c2)c1 [Example 15.48, (2S)-2-{[4-(3-methyl-5-{[4-(trifluoromethyl)pyrimidin-2-yl]amino}phenyl)pyridin-2-yl]amino}propan-1-ol] |
| > 7.00 | Cc1cc(Nc2nccc(C(F)(F)F)n2)cc(-c2ccnc(NC(C)(CO)CO)c2)c1 [Example 15.49, 2-methyl-2-{[4-(3-methyl-5-{[4-(trifluoromethyl)pyrimidin-2-yl]amino}phenyl)pyridin-2-yl]amino}propane-1,3-diol] |
| > 7.00 | Cc1cc(Nc2nccc(C(F)(F)F)n2)cc(-c2ccnc(NC(C)(C)CO)c2)c1 [Example 15.51, 2-methyl-2-{[4-(3-methyl-5-{[4-(trifluoromethyl)pyrimidin-2-yl]amino}phenyl)pyridin-2-yl]amino}propan-1-ol] |
| > 7.00 | Cc1cc(Nc2nccc(C(F)(F)F)n2)cc(-c2ccnc(NC[C@@H](C)O)c2)c1 [Example 15.52, (2R)-1-{[4-(3-methyl-5-{[4-(trifluoromethyl)pyrimidin-2-yl]amino}phenyl)pyridin-2-yl]amino}propan-2-ol] |
| > 7.00 | CC(=O)NCCNc1cc(-c2cc(C)cc(Nc3nccc(C(F)(F)F)n3)c2)ccn1 [Example 15.54, N-(2-{[4-(3-methyl-5-{[4-(trifluoromethyl)pyrimidin-2-yl]amino}phenyl)pyridin-2-yl]amino}ethyl)acetamide] |
| > 7.00 | Cc1cc(Nc2nccc(C(F)(F)F)n2)cc(-c2ccnc(NC3(CO)CC3)c2)c1 [Example 15.56, (1-{[4-(3-methyl-5-{[4-(trifluoromethyl)pyrimidin-2-yl]amino}phenyl)pyridin-2-yl]amino}cyclopropyl)methanol] |
| > 7.00 | Cc1cc(Nc2nccc(C(F)(F)F)n2)cc(-c2ccnc(NCCC(N)=O)c2)c1 [Example 15.59, N~3~-[4-(3-methyl-5-{[4-(trifluoromethyl)pyrimidin-2-yl]amino}phenyl)pyridin-2-yl]-beta-alaninamide] |
| 6.00 to 7.00 | Cc1cc(Nc2nccc(C(F)(F)F)n2)cc(-c2ccnc(NCC(C)(C)O)c2)c1 [Example 15.60, 2-methyl-1-{[4-(3-methyl-5-{[4-(trifluoromethyl)pyrimidin-2-yl]amino}phenyl)pyridin-2-yl]amino}propan-2-ol] |
| 6.00 to 7.00 | Cc1cc(Nc2nccc(C(F)(F)F)n2)cc(-c2ccnc(NC3COC3)c2)c1 [Example 15.62, N-{3-methyl-5-[2-(oxetan-3-ylamino)pyridin-4-yl]phenyl}-4-(trifluoromethyl)pyrimidin-2-amine] |
| 6.00 to 7.00 | CC(=O)NCCN(C)c1cc(-c2cc(C)cc(Nc3nccc(C(F)(F)F)n3)c2)ccn1 [Example 15.65, N-(2-{methyl[4-(3-methyl-5-{[4-(trifluoromethyl)pyrimidin-2-yl]amino}phenyl)pyridin-2-yl]amino}ethyl)acetamide] |
